Reference: US7279161B2, “Factor IX/factor IXa activating antibodies and antibody derivatives” (Baxter Aktiengesellschaft, priority 1999, dated 2007)
Entries after “also recorded” stand apart in the source; their conditions may differ.

Molecular target: T1, factor IXa (Bos taurus, UniProt P00741)
T1 construct: purchased Chromogenix COATEST VIII:C/4
Test: Chromogenic FVIII assay (COATEST VIII:C/4) with the kit's FIXa/FX
Type: biochemical, bovine
Settings: bovine FIXa and FX only; A1/3 24 μM
Procedure: In order to assay the FVIII-like activity of anti-FIXa antibodies secreted by hybridoma cells, the commercially available test-kit COATEST VIII:C/4® (Chromogenix) was employed. The assay was done essentially as described by the manufacturer with the following modifications:
To allow high throughput screening, the assay was downscaled to microtiter plate format. Briefly, 25 μl aliquots of hybridoma supernatants were transferred to microtiter plate (Costar, #3598) wells and warmed to 37° C. Chromogenic substrate (S-2222), synthetic thrombin inhibitor (I-2581), factor (F) IXa and FX were reconstituted in sterile water and FIXa/FX was mixed with phospholipids according to the supplier's protocol. Per reaction, 50 μl of the phospholipid/FIXa/FX solution were combined with 25 μl CaCl2 (25 mM) and 50 μl of the substrate/inhibitor cocktail. To start the reaction, 125 μl of the premix were added to the hybridoma supernatant in the microtiter plates and incubated at 37° C. Absorbency at 405 nm and 490 nm of the samples was read at various times (30 min to 12 h) against a reagent blank (MLW, cell culture medium instead of hybridoma supernatant) in a Labsystems iEMS Reader MF™ microtiter plate reader. FVIII-like activity of the samples was calculated by comparing the absorbency of the samples against the absorbency of a diluted FVIII reference standard (IMMUNO AG #5T4AR00) using GENESIS™ software.
Several anti-FIX/FIXa antibody producing hybridoma clones were subcloned up to four times and the resulting monoclonal hybridoma cell line used to produce monoclonal antibody containing supernatant. IgG isotype antibodies derived from these supernatants were purified over affinity columns and dialyzed against TBS (see above). IgM antibodies were used as unpurified supernatant fractions. […] Absorbance at 405 nm and 490 nm of the samples was read at various times (5 min to 6 h) against a reagent blank (cell culture medium instead of hybridoma supernatant) in a Labsystems iEMS Reader MF™ microtiter plate reader using GENESIS™ software. […]

T1 sequence (P00741 47-192 limits assumed): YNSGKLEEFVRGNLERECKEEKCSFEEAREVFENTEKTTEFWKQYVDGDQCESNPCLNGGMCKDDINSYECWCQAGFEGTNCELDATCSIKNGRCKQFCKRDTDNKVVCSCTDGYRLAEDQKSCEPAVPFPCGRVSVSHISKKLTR
T1 sequence (P00741 228-462 limits assumed): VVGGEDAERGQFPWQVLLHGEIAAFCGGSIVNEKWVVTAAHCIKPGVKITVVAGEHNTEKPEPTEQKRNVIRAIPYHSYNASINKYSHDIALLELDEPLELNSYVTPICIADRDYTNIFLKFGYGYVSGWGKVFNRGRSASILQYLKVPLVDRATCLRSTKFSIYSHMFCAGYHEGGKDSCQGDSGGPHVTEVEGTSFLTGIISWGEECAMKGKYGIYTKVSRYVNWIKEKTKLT

For RRREGGGYYVNWYFDRRR [A1/3], the “chromogenic FVIII-like activity (FXa generation) without human FIXa” value was “does not react with bovine FIXa and FX; also recorded: does not give rise to any FXa generation”.
